The values that follow come from the supplement of paper PMC10307832.

Holding throughout (assay): relative viability (nuclei count vs DMSO), 5 days (fraction); higher = more cells survive
Compound in the experiment “Bleomycin + Pictilisib”: CC1=C(N=C(N=C1N)[C@H](CC(=O)N)NC[C@@H](C(=O)N)N)C(=O)N[C@@H]([C@H](C2=CN=CN2)OC3C(C(C(C(O3)CO)O)O)OC4C(C(C(C(O4)CO)O)OC(=O)N)O)C(=O)N[C@H](C)[C@H]([C@H](C)C(=O)N[C@@H]([C@@H](C)O)C(=O)NCCC5=NC(=CS5)C6=NC(=CS6)C(=O)NCCC[S+](C)C)O [Bleomycin] + CS(=O)(=O)N1CCN(Cc2cc3nc(-c4cccc5[nH]ncc45)nc(N4CCOCC4)c3s2)CC1 [Pictilisib] (partner 1 µM)
As to conditions: main component drawn. The essentials: (§1)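 Relative viability divides the nuclei count in treated wells by that in vehicle wells. Lung cancer cell lines were seeded in 1536-well plates, dosed by pin tool the next day, and fixed and stained after 5 days in one step with final 0.05% Triton X-100, 1% formaldehyde and 1 ug/ml Hoechst. Dosing was a single drug or a fixed anchor-drug dose plus five library-drug doses (not always all listed) in √10 steps, and values are medians of duplicate plates imaged at 4×.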

Compound in the experiment “Bleomycin + Foretinib”: CC1=C(N=C(N=C1N)[C@H](CC(=O)N)NC[C@@H](C(=O)N)N)C(=O)N[C@@H]([C@H](C2=CN=CN2)OC3C(C(C(C(O3)CO)O)O)OC4C(C(C(C(O4)CO)O)OC(=O)N)O)C(=O)N[C@H](C)[C@H]([C@H](C)C(=O)N[C@@H]([C@@H](C)O)C(=O)NCCC5=NC(=CS5)C6=NC(=CS6)C(=O)NCCC[S+](C)C)O [Bleomycin] + COc1cc2c(Oc3ccc(NC(=O)C4(C(=O)Nc5ccc(F)cc5)CC4)cc3F)ccnc2cc1OCCCN1CCOCC1 [Foretinib] (partner 0.25 µM)
The following applies: main component drawn. The essentials: as §1

Compound in the experiment “Etoposide + Tozasertib”: COc1cc([C@@H]2c3cc4c(cc3[C@@H](O[C@@H]3O[C@@H]5CO[C@@H](C)O[C@H]5[C@H](O)[C@H]3O)[C@H]3COC(=O)[C@H]23)OCO4)cc(OC)c1O [Etoposide] + Cc1cc(Nc2cc(N3CCN(C)CC3)nc(Sc3ccc(NC(=O)C4CC4)cc3)n2)n[nH]1 [Tozasertib] (partner 0.1 µM)
Put shortly: as §1

Compound in the experiment “Etoposide + Olaparib”: COc1cc([C@@H]2c3cc4c(cc3[C@@H](O[C@@H]3O[C@@H]5CO[C@@H](C)O[C@H]5[C@H](O)[C@H]3O)[C@H]3COC(=O)[C@H]23)OCO4)cc(OC)c1O [Etoposide] + O=C(c1cc(Cc2n[nH]c(=O)c3ccccc23)ccc1F)N1CCN(C(=O)C2CC2)CC1 [Olaparib] (partner 8 µM)
The essentials: as §1

Consider NCI-H650, for which the relative viability in the experiment with Bleomycin + Pictilisib (first compound 0.01 µM) was 0.628; with Bleomycin + Pictilisib (first compound 0.03162 µM) it was 0.764; with Bleomycin + Pictilisib (first compound 0.1 µM) it was 0.728; in the experiment with Bleomycin + Pictilisib (first compound 0.3162 µM), 0.483; in the experiment with Bleomycin + Pictilisib (first compound 1 µM), 0.25; with Bleomycin + Foretinib (first compound 0.01 µM), 0.837. The relative viability in the experiment with Bleomycin + Foretinib (first compound 0.03162 µM) amounted to 0.915; with Bleomycin + Foretinib (first compound 0.1 µM), 0.823; with Bleomycin + Foretinib (first compound 0.3162 µM) it was 0.564; with Bleomycin + Foretinib (first compound 1 µM) it was 0.288; with Etoposide + Tozasertib (first compound 0.01 µM), 0.693; with Etoposide + Tozasertib (first compound 0.03162 µM) it was 0.717. For the same cell line, the relative viability with Etoposide + Tozasertib (first compound 0.1 µM) came to 0.498; with Etoposide + Tozasertib (first compound 0.3162 µM), 0.258; with Etoposide + Tozasertib (first compound 1 µM), 0.166; with Etoposide + Olaparib (first compound 0.01 µM) it was 0.393; in the experiment with Etoposide + Olaparib (first compound 0.03162 µM), 0.317; with Etoposide + Olaparib (first compound 0.1 µM) it was 0.314. Also, the relative viability with Etoposide + Olaparib (first compound 0.3162 µM) came to 0.184; in the experiment with Etoposide + Olaparib (first compound 1 µM), 0.152.
Regarding NCI-H2023, the relative viability stood at 0.225 with Bleomycin + Pictilisib (first compound 0.01 µM); 0.193 with Bleomycin + Pictilisib (first compound 0.03162 µM); 0.158 in the experiment with Bleomycin + Pictilisib (first compound 0.1 µM); 0.124 with Bleomycin + Pictilisib (first compound 0.3162 µM); 0.0805 with Bleomycin + Pictilisib (first compound 1 µM); 0.717 in the experiment with Bleomycin + Foretinib (first compound 0.01 µM). Besides, the relative viability with Bleomycin + Foretinib (first compound 0.03162 µM) was found to be 0.641; with Bleomycin + Foretinib (first compound 0.1 µM), 0.522; with Bleomycin + Foretinib (first compound 0.3162 µM), 0.245; with Bleomycin + Foretinib (first compound 1 µM), 0.162; in the experiment with Etoposide + Tozasertib (first compound 0.01 µM) it was 0.308; with Etoposide + Tozasertib (first compound 0.03162 µM), 0.337. The relative viability with Etoposide + Tozasertib (first compound 0.1 µM) worked out at 0.429; with Etoposide + Tozasertib (first compound 0.3162 µM), 0.291; in the experiment with Etoposide + Tozasertib (first compound 1 µM) it was 0.109; with Etoposide + Olaparib (first compound 0.01 µM) it was 0.415; in the experiment with Etoposide + Olaparib (first compound 0.03162 µM), 0.452; with Etoposide + Olaparib (first compound 0.1 µM) it was 0.356. Besides, the relative viability was 0.137 with Etoposide + Olaparib (first compound 0.3162 µM) and 0.111 with Etoposide + Olaparib (first compound 1 µM).
For the cell line NCI-H596, the relative viability came out at 0.379 with Bleomycin + Pictilisib (first compound 0.01 µM); 0.419 in the experiment with Bleomycin + Pictilisib (first compound 0.03162 µM); 0.329 in the experiment with Bleomycin + Pictilisib (first compound 0.1 µM); 0.268 in the experiment with Bleomycin + Pictilisib (first compound 0.3162 µM); 0.261 with Bleomycin + Pictilisib (first compound 1 µM); 0.586 with Bleomycin + Foretinib (first compound 0.01 µM). The relative viability with Bleomycin + Foretinib (first compound 0.03162 µM) is 0.629; in the experiment with Bleomycin + Foretinib (first compound 0.1 µM), 0.464; with Bleomycin + Foretinib (first compound 0.3162 µM), 0.354; with Bleomycin + Foretinib (first compound 1 µM) it was 0.247; with Etoposide + Tozasertib (first compound 0.01 µM) it was 0.774; with Etoposide + Tozasertib (first compound 0.03162 µM), 1.05. The relative viability in the experiment with Etoposide + Tozasertib (first compound 0.1 µM) is 0.843; in the experiment with Etoposide + Tozasertib (first compound 0.3162 µM), 0.543; with Etoposide + Tozasertib (first compound 1 µM), 0.683; with Etoposide + Olaparib (first compound 0.01 µM), 0.64; with Etoposide + Olaparib (first compound 0.03162 µM), 0.698; with Etoposide + Olaparib (first compound 0.1 µM), 0.724. In addition, the relative viability in the experiment with Etoposide + Olaparib (first compound 0.3162 µM) is 0.537; with Etoposide + Olaparib (first compound 1 µM), 0.561.
Regarding SK-LU-1, the relative viability in the experiment with Bleomycin + Pictilisib (first compound 0.01 µM) was found to be 0.434; with Bleomycin + Pictilisib (first compound 0.03162 µM), 0.638; with Bleomycin + Pictilisib (first compound 0.1 µM), 0.474; with Bleomycin + Pictilisib (first compound 0.3162 µM) it was 0.352; with Bleomycin + Pictilisib (first compound 1 µM) it was 0.282; with Bleomycin + Foretinib (first compound 0.01 µM), 0.704. Moreover, the relative viability in the experiment with Bleomycin + Foretinib (first compound 0.03162 µM) came to 0.874; in the experiment with Bleomycin + Foretinib (first compound 0.1 µM), 0.815; in the experiment with Bleomycin + Foretinib (first compound 0.3162 µM), 0.461; with Bleomycin + Foretinib (first compound 1 µM), 0.365; with Etoposide + Tozasertib (first compound 0.01 µM) it was 0.356; with Etoposide + Tozasertib (first compound 0.03162 µM) it was 0.278. The relative viability with Etoposide + Tozasertib (first compound 0.1 µM) came to 0.318; in the experiment with Etoposide + Tozasertib (first compound 0.3162 µM) it was 0.161; in the experiment with Etoposide + Tozasertib (first compound 1 µM) it was 0.167; with Etoposide + Olaparib (first compound 0.01 µM), 0.407; in the experiment with Etoposide + Olaparib (first compound 0.03162 µM), 0.511; with Etoposide + Olaparib (first compound 0.1 µM), 0.348. The figures for the relative viability in the experiment with Etoposide + Olaparib (first compound 0.3162 µM) and with Etoposide + Olaparib (first compound 1 µM) were 0.238 and 0.193, respectively.
A-427: the relative viability in the experiment with Bleomycin + Pictilisib (first compound 0.01 µM) was 0.58; with Bleomycin + Pictilisib (first compound 0.03162 µM), 0.488; with Bleomycin + Pictilisib (first compound 0.1 µM) it was 0.492; in the experiment with Bleomycin + Pictilisib (first compound 0.3162 µM), 0.155; in the experiment with Bleomycin + Pictilisib (first compound 1 µM) it was 0.174; with Bleomycin + Foretinib (first compound 0.01 µM), 0.862. For the same cell line, the relative viability with Bleomycin + Foretinib (first compound 0.03162 µM) came out at 0.873; with Bleomycin + Foretinib (first compound 0.1 µM), 0.935; with Bleomycin + Foretinib (first compound 0.3162 µM), 0.481; in the experiment with Bleomycin + Foretinib (first compound 1 µM), 0.284; with Etoposide + Tozasertib (first compound 0.01 µM) it was 0.213; with Etoposide + Tozasertib (first compound 0.03162 µM), 0.224. Also, the relative viability with Etoposide + Tozasertib (first compound 0.1 µM) was 0.219; in the experiment with Etoposide + Tozasertib (first compound 0.3162 µM), 0.165; with Etoposide + Tozasertib (first compound 1 µM) it was 0.147; with Etoposide + Olaparib (first compound 0.01 µM), 0.715; in the experiment with Etoposide + Olaparib (first compound 0.03162 µM), 0.83; in the experiment with Etoposide + Olaparib (first compound 0.1 µM), 0.588. In addition, the relative viability came out at 0.298 in the experiment with Etoposide + Olaparib (first compound 0.3162 µM) and 0.221 with Etoposide + Olaparib (first compound 1 µM).
Turning to NCI-H460, the relative viability in the experiment with Bleomycin + Pictilisib (first compound 0.01 µM) was determined as 0.307; with Bleomycin + Pictilisib (first compound 0.03162 µM) it was 0.285; with Bleomycin + Pictilisib (first compound 0.1 µM) it was 0.244; with Bleomycin + Pictilisib (first compound 0.3162 µM) it was 0.0358; with Bleomycin + Pictilisib (first compound 1 µM), 0.1; with Bleomycin + Foretinib (first compound 0.01 µM), 0.68. Besides, the relative viability in the experiment with Bleomycin + Foretinib (first compound 0.03162 µM) turned out to be 0.651; with Bleomycin + Foretinib (first compound 0.1 µM), 0.283; with Bleomycin + Foretinib (first compound 0.3162 µM), 0.0633; with Bleomycin + Foretinib (first compound 1 µM), 0.0375; in the experiment with Etoposide + Tozasertib (first compound 0.01 µM), 0.396; with Etoposide + Tozasertib (first compound 0.03162 µM), 0.369. Further, the relative viability in the experiment with Etoposide + Tozasertib (first compound 0.1 µM) is 0.338; with Etoposide + Tozasertib (first compound 0.3162 µM) it was 0.0692; in the experiment with Etoposide + Tozasertib (first compound 1 µM), 0.0251; with Etoposide + Olaparib (first compound 0.01 µM), 0.395; in the experiment with Etoposide + Olaparib (first compound 0.03162 µM) it was 0.314; with Etoposide + Olaparib (first compound 0.1 µM) it was 0.247. The relative viability with Etoposide + Olaparib (first compound 0.3162 µM) was found to be 0.0642; in the experiment with Etoposide + Olaparib (first compound 1 µM), 0.047.
SW 1573: the relative viability with Bleomycin + Pictilisib (first compound 0.01 µM) was found to be 0.43; in the experiment with Bleomycin + Pictilisib (first compound 0.03162 µM) it was 0.361; in the experiment with Bleomycin + Pictilisib (first compound 0.1 µM), 0.459; with Bleomycin + Pictilisib (first compound 0.3162 µM), 0.254; in the experiment with Bleomycin + Pictilisib (first compound 1 µM) it was 0.174; in the experiment with Bleomycin + Foretinib (first compound 0.01 µM), 0.811. The relative viability with Bleomycin + Foretinib (first compound 0.03162 µM) was 0.813; in the experiment with Bleomycin + Foretinib (first compound 0.1 µM) it was 0.748; with Bleomycin + Foretinib (first compound 0.3162 µM), 0.468; with Bleomycin + Foretinib (first compound 1 µM), 0.308; with Etoposide + Tozasertib (first compound 0.01 µM), 0.163; with Etoposide + Tozasertib (first compound 0.03162 µM) it was 0.133. Further, the relative viability with Etoposide + Tozasertib (first compound 0.1 µM) is 0.164; in the experiment with Etoposide + Tozasertib (first compound 0.3162 µM), 0.156; in the experiment with Etoposide + Tozasertib (first compound 1 µM) it was 0.0887; with Etoposide + Olaparib (first compound 0.01 µM) it was 0.45; in the experiment with Etoposide + Olaparib (first compound 0.03162 µM) it was 0.397; with Etoposide + Olaparib (first compound 0.1 µM), 0.395. For the same cell line, the relative viability with Etoposide + Olaparib (first compound 0.3162 µM) is 0.16; in the experiment with Etoposide + Olaparib (first compound 1 µM) it was 0.0987.
